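Five compound concentrations were applied to cells in 96-well plates for 48 hours; endpoints were derived by simple linear interpolation of the resulting dose-response curve. TGI: concentration producing complete growth inhibition.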
Tests used:
Assay in all cases: NCI tumour cell line growth inhibition, 48 h
SW-620 colon = tested on: SW-620 colon
IGROV1 ovarian = tested on: IGROV1 ovarian
TK-10 renal = tested on: TK-10 renal
NCI-H522 lung = tested on: NCI-H522 lung
NCI-H23 lung = tested on: NCI-H23 lung
CCRF-CEM leukemia = tested on: CCRF-CEM leukemia
SNB-78 CNS = tested on: SNB-78 CNS
KM20L2 colon = tested on: KM20L2 colon
SN12C renal = tested on: SN12C renal
RPMI-8226 leukemia = tested on: RPMI-8226 leukemia
ACHN renal = tested on: ACHN renal
LXFL 529 NSCLC = tested on: LXFL 529 NSCLC
SNB-19 CNS = tested on: SNB-19 CNS
DMS 114 small cell lung = tested on: DMS 114 small cell lung
786-0 renal = tested on: 786-0 renal
HOP-62 NSCLC = tested on: HOP-62 NSCLC
EKVX NSCLC = tested on: EKVX NSCLC
HCC-2998 colon = tested on: HCC-2998 colon
LOX IMVI melanoma = tested on: LOX IMVI melanoma
UACC-257 melanoma = tested on: UACC-257 melanoma
SR leukemia = tested on: SR leukemia
SK-MEL-2 melanoma = tested on: SK-MEL-2 melanoma
K-562 leukemia = tested on: K-562 leukemia
HL-60(TB) leukemia = tested on: HL-60(TB) leukemia
SF-295 CNS = tested on: SF-295 CNS
OVCAR-8 ovarian = tested on: OVCAR-8 ovarian
HCT-116 colon = tested on: HCT-116 colon
SF-268 CNS = tested on: SF-268 CNS
HCT-15 colon = tested on: HCT-15 colon
OVCAR-5 ovarian = tested on: OVCAR-5 ovarian
RXF 393 renal = tested on: RXF 393 renal
UACC-62 melanoma = tested on: UACC-62 melanoma
SNB-75 CNS = tested on: SNB-75 CNS
HOP-92 NSCLC = tested on: HOP-92 NSCLC
XF 498 CNS = tested on: XF 498 CNS
U251 CNS = tested on: U251 CNS
M19-MEL melanoma = tested on: M19-MEL melanoma
OVCAR-4 ovarian = tested on: OVCAR-4 ovarian
HT29 colon = tested on: HT29 colon
UO-31 renal = tested on: UO-31 renal
M14 melanoma = tested on: M14 melanoma
OVCAR-3 ovarian = tested on: OVCAR-3 ovarian
DLD-1 colon = tested on: DLD-1 colon
COLO 205 colon = tested on: COLO 205 colon
DMS 273 small cell lung = tested on: DMS 273 small cell lung
SK-MEL-5 melanoma = tested on: SK-MEL-5 melanoma
MALME-3M melanoma = tested on: MALME-3M melanoma
A498 renal = tested on: A498 renal
NCI-H226 lung = tested on: NCI-H226 lung
NCI-H460 lung = tested on: NCI-H460 lung
SK-MEL-28 melanoma = tested on: SK-MEL-28 melanoma
SF-539 CNS = tested on: SF-539 CNS
SK-OV-3 ovarian = tested on: SK-OV-3 ovarian
MOLT-4 leukemia = tested on: MOLT-4 leukemia
A549 NSCLC = tested on: A549 NSCLC
KM12 colon = tested on: KM12 colon
HOP-18 NSCLC = tested on: HOP-18 NSCLC

Measured: TGI

O=S1(=O)OCCOS(=O)(=O)C1(Br)Cc1ccccc1
> 100 µM: SW-620 colon | IGROV1 ovarian | TK-10 renal | NCI-H522 lung | NCI-H23 lung | CCRF-CEM leukemia | SNB-78 CNS | KM20L2 colon | SN12C renal | RPMI-8226 leukemia | ACHN renal | LXFL 529 NSCLC | SNB-19 CNS | DMS 114 small cell lung | 786-0 renal | HOP-62 NSCLC | EKVX NSCLC | HCC-2998 colon | LOX IMVI melanoma | UACC-257 melanoma | SR leukemia | SK-MEL-2 melanoma | K-562 leukemia | HL-60(TB) leukemia | SF-295 CNS | OVCAR-8 ovarian | HCT-116 colon | SF-268 CNS | HCT-15 colon | OVCAR-5 ovarian | RXF 393 renal | UACC-62 melanoma | SNB-75 CNS | HOP-92 NSCLC | XF 498 CNS | U251 CNS | M19-MEL melanoma | OVCAR-4 ovarian | HT29 colon | UO-31 renal | M14 melanoma | OVCAR-3 ovarian | DLD-1 colon | COLO 205 colon | DMS 273 small cell lung | SK-MEL-5 melanoma | MALME-3M melanoma | A498 renal | NCI-H226 lung | NCI-H460 lung | SK-MEL-28 melanoma | SF-539 CNS | SK-OV-3 ovarian | MOLT-4 leukemia | A549 NSCLC

CC1CCC2(OCCO2)[C@]2(C)CC(O)C(=O)C=C12 (stereo partly drawn)
> 100 µM: SW-620 colon | IGROV1 ovarian | TK-10 renal | NCI-H522 lung | NCI-H23 lung | CCRF-CEM leukemia | KM12 colon | SN12C renal | RPMI-8226 leukemia | ACHN renal | LXFL 529 NSCLC | SNB-19 CNS | DMS 114 small cell lung | 786-0 renal | EKVX NSCLC | HCC-2998 colon | UACC-257 melanoma | HOP-18 NSCLC | SR leukemia | SK-MEL-2 melanoma | K-562 leukemia | HL-60(TB) leukemia | SF-295 CNS | OVCAR-8 ovarian | SF-268 CNS | HCT-15 colon | OVCAR-5 ovarian | RXF 393 renal | HOP-92 NSCLC | XF 498 CNS | U251 CNS | M19-MEL melanoma | HT29 colon | UO-31 renal | M14 melanoma | OVCAR-3 ovarian | DLD-1 colon | COLO 205 colon | DMS 273 small cell lung | SK-MEL-5 melanoma | MALME-3M melanoma | NCI-H226 lung | NCI-H460 lung | SK-MEL-28 melanoma | SF-539 CNS | SK-OV-3 ovarian | MOLT-4 leukemia | A549 NSCLC

From PubChem BioAssay (NCI)
